This note sets out measurements from PubChem BioAssay AID1259408 (Genetic Toxicology Data Bank (GENE-TOX), 2018).

For the series, the system named is GENE-TOX genotoxicity assays, various organisms and cells. The experiment in a line: GENE-TOX mutagenicity studies. As to conditions: for call: Assay Type: In vivo carcinogenicity studies.
[1] abbreviates: Species/Cell Type: Mammalian polychromatic erythrocytes, Assay Type: Micronucleus test, chromosome aberrations, Assay Code: MNTT, Evaluation Type: Evaluation B (Post-1980).
Where [2] appears, read: Species/Cell Type: Bacillus subtilis (H17 vs M45), Assay Type: Rec-assay, spot test, DNA effects (bacterial DNA repair), Assay Code: REW-, Evaluation Type: Evaluation A (Pre-1980).
The mark [3] stands for this setting: Species/Cell Type: Saccharomyces cerevisiae, Assay Type: Mitotic recombination or gene conversion, Assay Code: YEH-, Evaluation Type: Evaluation A (Pre-1980).
Where [4] appears, read: Species/Cell Type: Salmonella typhimurium (one or more of the five standard strains: TA98, TA100, TA1535, TA1537, and TA1538), Assay Type: Histidine reverse gene mutation, Ames assay, Assay Code: SALT, Evaluation Type: Evaluation A (Pre-1980).
The mark [5] stands for this setting: Species/Cell Type: Escherichia coli WP2 UVRA, Assay Type: Tryptophan reverse gene mutation, Assay Code: WPU+D, Dose Response: With dose response, Evaluation Type: Evaluation A (Pre-1980).
Setting [6] is: Species/Cell Type: Salmonella typhimurium (one or more of the five standard strains: TA98, TA100, TA1535, TA1537, and TA1538), Assay Type: Histidine reverse gene mutation, Ames assay, Assay Code: SAL+, Evaluation Type: Evaluation A (Pre-1980).
The mark [7] stands for this setting: Species/Cell Type: Bacillus subtilis (H17 vs M45), Assay Type: Rec-assay, spot test, DNA effects (bacterial DNA repair), Assay Code: REW+, Evaluation Type: Evaluation A (Pre-1980).
Setting [8] is: Species/Cell Type: Human, Assay Type: Sister-chromatid exchange (SCE) in vitro, Assay Code: SC1+D, Dose Response: With dose response, Evaluation Type: Evaluation B (Post-1980).
Setting [9] is: Species/Cell Type: Salmonella typhimurium (one or more of the five standard strains: TA98, TA100, TA1535, TA1537, and TA1538), Assay Type: Histidine reverse gene mutation, Ames assay, Assay Code: SAL+*, Activation: With metabolic activation, Evaluation Type: Evaluation A (Pre-1980).
The mark [10] stands for this setting: Species/Cell Type: Nonhuman, Assay Code: CCG+, Evaluation Type: Evaluation A (Pre-1980).
Where [11] appears, read: Species/Cell Type: Syrian hamster embryo (SHE) cells, Assay Type: Cell transformation, clonal assay, Assay Code: CTC-, Evaluation Type: Evaluation A (Pre-1980).
The mark [12] stands for this setting: Species/Cell Type: Nonhuman, Assay Type: Sister-chromatid exchange (SCE) in vitro, Assay Code: SC2+D, Dose Response: With dose response, Evaluation Type: Evaluation B (Post-1980).

Each structure is given as a SMILES string. Activity calls are given as the source filed them. How the calls were made is not given here.

Take `C=CCNC(=O)OC1(SC)C(=O)c2ccccc2C1=O`: the mutagenic call (Species/Cell Type: Salmonella typhimurium, Assay Type: Forward and reverse gene mutation, host-mediated assay, Assay Code: HMAT, Evaluation Type: Evaluation A (Pre-1980)) is “no conclusion”.
Turning to `CC(C)NCC(O)COc1ccc(CC(N)=O)cc1` (stereo not drawn), under setting [1], the mutagenic call was “no conclusion”.
As to `COC(=O)COc1ccc(Br)cc1CCl` (tested in a mixture with another compound), the mutagenic call (Species/Cell Type: Saccharomyces cerevisiae, Assay Type: Reverse gene mutation, Assay Code: YER+, Evaluation Type: Evaluation A (Pre-1980)) is “active; positive”.
Turning to `CC(=O)OC[C@]12C[C@H](OC(=O)CC(C)C)C(C)=C[C@H]1O[C@@H]1[C@H](O)[C@@H](OC(C)=O)[C@@]2(C)[C@]12CO2`, the mutagenic call under setting [2] was “inactive; negative”, the mutagenic call under setting [3] is “inactive; negative” and the mutagenic call under setting [4] is “no conclusion”.
`Nc1ncc(/C=C/c2ccc([N+](=O)[O-])o2)nn1`: the mutagenic call under setting [2] is “inactive; negative”; the mutagenic call (Species/Cell Type: Escherichia coli WP2, Assay Type: Tryptophan reverse gene mutation, Assay Code: WP2+, Evaluation Type: Evaluation A (Pre-1980)) was “active; positive”; the mutagenic call under setting [5] is “active; positive”.
As for `c1cc2ccc3cc4c(c5ccc(c1)c2c35)CCC1OC41` (stereo not drawn), the mutagenic call (Species/Cell Type: Chinese hamster lung (V79) cells, Assay Type: Forward gene mutation at the HPRT or ouabain locus, Assay Code: V79-, Evaluation Type: Evaluation A (Pre-1980)) was “inactive; negative”; the mutagenic call (Species/Cell Type: Mouse prostate cells, Assay Type: Cell transformation, Assay Code: CTM+, Evaluation Type: Evaluation A (Pre-1980)) was “active; positive”; the mutagenic call under setting [6] is “active; positive”.
Turning to `COP(=S)(OC)SCc1nc(N)nc(N)n1`, the mutagenic call (Species/Cell Type: Hordeum vulgare (barley), Assay Type: Chromosome aberrations, Assay Code: HOC-, Evaluation Type: Evaluation A (Pre-1980)) was “inactive; negative”.
On to `CC(C)(c1ccc(O)cc1)c1ccc(O)cc1` (tested in a mixture with another compound), for which, under setting [6], the mutagenic call is “active; positive”.
For the compound `C[As](SC#N)SC#N`, the mutagenic call under setting [7] was “active; positive”.
In the case of `Cc1cccc2c1ccc1c3c(ccc12)C(=O)CC3`, the mutagenic call under setting [4] was “no conclusion”.
For `O=c1[nH]c2ccccc2n1CCCN1CCC(n2c(=O)[nH]c3cc(Cl)ccc32)CC1`, the mutagenic call (Species/Cell Type: Mammalian polychromatic erythrocytes, Assay Type: Micronucleus test, chromosome aberrations, Assay Code: MNT+U, Dose Response: Unconfirmed positive response, Evaluation Type: Evaluation B (Post-1980)) was “active; positive”.
On to `CC(=O)c1cc(O)c(C(C)C)c2cc(C)c(-c3c(C)cc4c(C(C)C)c(O)c(O)c(C=O)c4c3O)c(O)c12`, for which the mutagenic call under setting [1] is “no conclusion” and the mutagenic call (Species/Cell Type: Nonhuman, Assay Type: Sister-chromatid exchange (SCE) in vivo, Assay Code: SC3+D, Dose Response: With dose response, Evaluation Type: Evaluation B (Post-1980)) is “active; positive”.
Consider `Cc1cc(Cl)cc2c1C(=O)/C(=C1\Sc3cc(Cl)cc(C)c3C1=O)S2`, for which the mutagenic call (Species/Cell Type: Salmonella typhimurium (one or more of the five standard strains: TA98, TA100, TA1535, TA1537, and TA1538), Assay Type: Histidine reverse gene mutation, Ames assay, Assay Code: SAL-, Evaluation Type: Evaluation A (Pre-1980)) is “inactive; negative”.
Regarding `CCOP(=O)(OCC)SCCSCC` (tested in a mixture with another compound), the mutagenic call was “active; positive” under setting [7]; “inactive; negative” (Species/Cell Type: Drosophila melanogaster, Assay Type: Sex-linked recessive lethal gene mutation, Assay Code: SRL-, Evaluation Type: Evaluation A (Pre-1980)); “active; positive” under setting [5]; “inactive; negative” (Species/Cell Type: Escherichia coli polA (W3119 vs P3478), Assay Type: Rec-assay, DNA effects (bacterial DNA repair), Assay Code: RE1-, Evaluation Type: Evaluation A (Pre-1980)); “active; positive” (Species/Cell Type: Nonhuman, Assay Type: Sister-chromatid exchange (SCE) in vitro, Assay Code: SC2+D*, Activation: With metabolic activation, Dose Response: With dose response, Evaluation Type: Evaluation B (Post-1980)); “active; positive” (Species/Cell Type: Saccharomyces cerevisiae, Assay Type: Mitotic recombination or gene conversion, Assay Code: YEH+, Evaluation Type: Evaluation A (Pre-1980)). Moreover, the mutagenic call under setting [6] was “active; positive”.
In the case of `C/C=C(C)/C=C/C=C(C)/C=C/C1=C(C)CCCC1(C)C`, under setting [8], the mutagenic call was “active; positive”.
As to `O=c1ccn([C@H]2C[C@H](O)[C@@H](CO)O2)c(=O)[nH]1`, under “Species/Cell Type: Drosophila melanogaster, Assay Type: Sex-linked recessive lethal gene mutation, Assay Code: SRLT, Evaluation Type: Evaluation A (Pre-1980)”, the mutagenic call is reported as “no conclusion”.
Turning to `Cc1cccc2c1cc(C)c1c3ccccc3ccc21`, the mutagenic call under setting [9] is “active; positive”.
On the same count and under the same terms, the result for `Cc1cnc2ccccc2c1` reads “active; positive”.
Turning to `O=C(c1ccc2c(c1)OCO2)C1CO1` (stereo not drawn), the mutagenic call under setting [6] is “active; positive”.
On to `c1ccc2c(c1)ccc1nc3c(ccc4ccccc43)cc12`, for which the mutagenic call (Species/Cell Type: Fischer rat embryo (RLV/1706) cells, Assay Type: Cell transformation, viral enhanced, Assay Code: CTR+, Evaluation Type: Evaluation A (Pre-1980)) was “active; positive”. Under setting [10], the call is “active; positive”.
Take `CC(C)CCC[C@@H](C)[C@H]1CC[C@H]2[C@@H]3CC=C4C[C@@H](O)CC[C@]4(C)[C@H]3CC[C@]12C`: under setting [11], the mutagenic call was “inactive; negative”.
On to `Nc1cccc2cc3ccccc3cc12`, for which the mutagenic call was “no conclusion” (Species/Cell Type: Escherichia coli polA (W3119 vs P3478), Assay Type: Rec-assay, DNA effects (bacterial DNA repair), Assay Code: RE1T, Evaluation Type: Evaluation A (Pre-1980)); “inactive; negative” (Species/Cell Type: Fischer rat embryo (RLV/1706) cells, Assay Type: Cell transformation, viral enhanced, Assay Code: CTR-, Evaluation Type: Evaluation A (Pre-1980)); “inactive; positive without activation, negative with activation” (Species/Cell Type: Saccharomyces cerevisiae, Assay Type: Mitotic recombination or gene conversion, Assay Code: YEH+/-*, Activation: With metabolic activation, Evaluation Type: Evaluation A (Pre-1980)); “active; positive” under setting [9]; “inactive; negative” (Species/Cell Type: Salmonella typhimurium, Assay Type: Forward and reverse gene mutation, host-mediated assay, Assay Code: HMA-, Evaluation Type: Evaluation A (Pre-1980)); “inactive; negative” under setting [11].
`N#CN(CCCC(NC(=O)c1ccccc1)C(N)=O)N=O` (stereo not drawn): the mutagenic call (Species/Cell Type: Escherichia coli polA (W3119 vs P3478), Assay Type: Rec-assay, DNA effects (bacterial DNA repair), Assay Code: RE1+, Evaluation Type: Evaluation A (Pre-1980)) is “active; positive”.
For the compound `BrBr`, the mutagenic call (Species/Cell Type: Allium cepa, Assay Type: Chromosome aberrations, Assay Code: ALC+, Evaluation Type: Evaluation A (Pre-1980)) is “active; positive”.
Turning to `CCN(CC)N=Nc1ccccc1`, where the note is “Species/Cell Type: Mammalian polychromatic erythrocytes, Assay Type: Micronucleus test, chromosome aberrations, Assay Code: MNT+, Evaluation Type: Evaluation A (Pre-1980)”, the mutagenic call is “active; positive”. For the same compound, the call (Species/Cell Type: Nonhuman, Assay Code: CCG+L, Evaluation Type: Evaluation A (Pre-1980)) was “active; positive”.
Take `Nc1ccc(F)cc1`: the mutagenic call (Species/Cell Type: Mouse, Sex: Male, Assay Type: Sperm morphology, Assay Code: SPI-, Evaluation Type: Evaluation A (Pre-1980)) was “inactive; negative”.
As to `C#C[C@]1(O)CC[C@H]2[C@@H]3CCc4cc(OC)ccc4[C@H]3CC[C@@]21C`, the call under setting [10] is “active; positive”.
In the case of `CC1CN(N=O)CCN1N=O` (stereo not drawn), the mutagenic call under setting [9] was “active; positive”.
`O[C@@H]1C=Cc2ccc3cc4ccccc4cc3c2[C@H]1O`: the mutagenic call (Species/Cell Type: Chinese hamster lung (V79) cells, Assay Type: Forward gene mutation at the HPRT or ouabain locus, Assay Code: V79-*, Activation: With metabolic activation, Evaluation Type: Evaluation A (Pre-1980)) was “inactive; negative”; the mutagenic call under setting [12] is “active; positive”; the mutagenic call under setting [4] is “no conclusion”.
On to `C[C@H]1CCCC(=O)CCC/C=C/c2cc(O)cc(O)c2C(=O)O1`, for which the mutagenic call under setting [7] was “active; positive” and the mutagenic call under setting [3] was “inactive; negative”.
`Cc1cc(O)c2c(c1)C(=O)c1cc(O)cc(O[C@@H]3O[C@H](CO)[C@@H](O)[C@H](O)[C@H]3O)c1C2=O`: the mutagenic call under setting [9] was “active; positive”.
Turning to `N/C(=N\O)c1ccc([N+](=O)[O-])o1`, the mutagenic call is “active; positive” under setting [12] and “active; positive” under setting [6].
On to `Cc1ncc(COP(=O)(O)O)c(C)c1O`, for which the mutagenic call (Species/Cell Type: Human lymphocytes, Assay Type: Sister-chromatid exchange (SCE) in vitro, Assay Code: SCL+D, Dose Response: With dose response, Evaluation Type: Evaluation B (Post-1980)) was “active; positive” and the mutagenic call under setting [8] is “active; positive”.
